Experiment [1] concerns HCT116 MTAP−/− subcutaneous xenograft tumors. The experiment in a line: In vivo effect experiment of HCT116 MTAP−/− subcutaneous xenograft tumors in nude mice. The following applies: 50 mg/kg daily intragastric. On the procedure: Female Nu/Nu nude mice (6-8 weeks old, Beijing Vital River Laboratory Animal Technology Co., Ltd.) were raised in an SPF animal room at a temperature of 20° C.-25° C., relative humidity of 40%-70%, and light and dark lighting for 12 hours each; and animals can freely drink and eat. The animals were adaptively fed before experiment.
HCT116 MTAP^−/− cells (Horizon) were cultured in vitro for proliferation, cells in logarithmic growth phase were collected and resuspended in a serum-free RPMI-1640 medium, and the cell concentration was adjusted to 6.0×10^7 cells/mL; and 100 μL of the cell suspension was injected subcutaneously into the right anterior armpit of each nude mouse by using a 1 mL syringe, the status of the animals was observed regularly, and the growth of transplanted tumors was monitored regularly.
When the tumor volume reached 100-300 mm^3, animals with too large or too small tumor volume or uncertain tumor formation were eliminated, and tumor bearing mice with good health and similar tumor volume were selected and randomly grouped, 6 mice in each group; the administration group received daily intragastric administration (AG-270: 50 mg/kg, with a structure shown below; compound to be tested: 1-7.5 mg/kg); and the control group was intragastrically administrated with the same volume of blank solvent. In the administration period, the tumor diameter was measured twice a week, the tumor volume was calculated, the animals were weighed, and their weight was recorded.
A formula for calculating tumor volume (TV) is: Tv=½×a×b^2, wherein a represents long diameter of the tumor, and b represents short diameter of the tumor.
Experimental data is calculated and statistically processed by using Microsoft Office Excel 2007 software. Unless otherwise specified, the data were expressed as mean±standard error (Mean SEM), and t-test is used for comparison between two groups.
Growth curves of tumor volume in each group are shown in FIG. 1, results of SAM test in tumors of each group are shown in FIG. 2, and the mean tumor volume and SEM in each group are shown in Table 2 below: […]

A further experiment has as its target T1, MAT2A enzyme (Homo sapiens, UniProt P31153).
T1 construct: purchased BPS 71401
Kind of experiment: Enzymatic testing method for MAT2A (Biomol Green, OD620). It counts as biochemical. The following applies: score by IC50 for inhibiting MAT2A; read-out: MAT2A inhibition score. On the procedure:
• a) A 5×MAT2A test buffer (250 mM Tris-HCl, pH 8.0; 250 mM KCl; 75 mM MgCl2; 0.025% BSA; 0.05% Brij35; 1.5 mM EDTA) was first prepared and partially diluted to 1× for later use; • b) Preparation and addition of MAT2A enzyme (BPS, 71401): the MAT2A enzyme was prepared into 3.674 ng/L by using the 1×MAT2A test buffer (1.67×, final concentration 2.20 ng/L), a BioTek (MultiFlo FX) automatic liquid separator was used, 15 μL of 1.67×MAT2A enzyme solution was added to compound test wells and negative control wells respectively, and 15 μL of 1×MAT2A test buffer was added to blank control wells; • c) Preparation and addition of a compound: a compound to be tested was diluted with DMSO from 10 mM stock solution to 100 μM, a positive drug AGI-24512 was diluted under the same conditions, and the diluted compound and positive drug were automatically sprayed into each well by using a Tecan compound titrator (D300e) according to preset concentration gradients, where the spray volume was little and negligible. The concentration gradient was initially 1 μM, the dilution was implemented by ½ log, and a total of 8 gradients were set. Centrifugation at 2500 rpm for 30 s and incubation at 25° C. for 30 min were performed; • d) Preparation of ATP: 10 mM ATP (Sigma, A7699) was diluted with 1×MAT2A test buffer to 700 μM for later use; • e) Preparation and addition of a substrate and ATP mixture: 5×MAT2A test buffer, 3 μL/well; 750 μM L-methionine (Adamas, 01100469), 2.5 μL/well; 700 μM ATP, 2.5 μL/well; and double distilled water, 2 μL/well. A total amount of required mixture was prepared according to the number of test wells, and 10 μL of the mixture was added to each well by using the BioTek (MultiFlo FX) automatic liquid separator, followed by centrifugation at 2500 rpm for 30 s and reaction at 25° C. for 150 min; • f) Addition of Biomol Green detection reagent: 50 μL of Biomol Green (Enzo, BML-AK111) was added to each well by using the BioTek (MultiFlo FX) automatic liquid separator, followed by centrifugation at 2500 rpm for 30 s and incubation at 25° C. for 20 minutes; • g) After the reaction, OD620 values were read by using a Perkin Elmer (Envision 2105) multifunctional plate reader.
A formula for calculating an inhibition rate was as follows: […]
Wherein, • % Inhibition: inhibition rate % • ODsample: OD620 value in a sample well; • ODmin: representing a mean OD620 value of blank control wells without the enzyme or compound to be tested; • ODmax: representing a mean OD620 value of negative control wells with the enzyme and without the compound.
Then a dose-effect curve log(inhibitor) vs. response-Variable slope was fitted by usingGraphPad Prism 5 software to obtain an IC50 value of compound for MAT2A enzyme inhibition.

T1 sequence (P31153 whole entry): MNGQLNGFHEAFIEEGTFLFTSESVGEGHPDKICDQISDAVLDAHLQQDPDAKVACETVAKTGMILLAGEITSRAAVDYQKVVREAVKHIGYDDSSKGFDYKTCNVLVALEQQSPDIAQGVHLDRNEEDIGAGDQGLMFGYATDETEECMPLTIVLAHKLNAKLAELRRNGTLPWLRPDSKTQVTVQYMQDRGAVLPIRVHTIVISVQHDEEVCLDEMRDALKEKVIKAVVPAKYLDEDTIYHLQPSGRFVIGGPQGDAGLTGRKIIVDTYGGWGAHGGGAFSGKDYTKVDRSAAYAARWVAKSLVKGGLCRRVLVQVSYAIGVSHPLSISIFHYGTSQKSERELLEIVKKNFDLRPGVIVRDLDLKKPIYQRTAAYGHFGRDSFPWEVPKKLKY

Take `COc1ccc(-c2c(Nc3ccccn3)[nH]c3c(C4=CCCCC4)c(-c4ccccc4)nn3c2=O)cc1` [AG-270, reference compound]: the “Tumor volume, mean volume” value in experiment [1] (day 1 of administration) is 154 mm^3; in experiment [1] (day 4 of administration), 189 mm^3; in experiment [1] (day 6 of administration) it was 219 mm^3; in experiment [1] (day 8 of administration), 244 mm^3; in experiment [1] (day 11 of administration), 303 mm^3; in experiment [1] (day 13 of administration), 369 mm^3. Also, in experiment [1] (day 15 of administration), the “Tumor volume, mean volume” value is listed as 419 mm^3.
Consider `COc1cc(-c2cn3ccc(C4CC4)nc3c(-c3ccc4c(c3)OC(F)(F)O4)c2=O)ccc1OC(F)F` [Example 34, 2-cyclopropyl-9-(2,2-difluoro-1,3-benzodioxol-5-yl)-7-[4-(difluoromethoxy)-3-methoxyphenyl]-8H-pyrido[1,2-a]pyrimidin-8-one], for which the IC50 on MAT2A enzyme is above 1000 nM.
Same read-out and setting: for `O=c1c(-c2ccc(OC(F)F)cc2)cn2ccc(Cl)cc2c1-c1ccc(OC(F)F)cc1` [Example 2, 8-chloro-1,3-bis(4-(difluoromethoxy)phenyl)-2H-quinolizin-2-one] the value was below 50 nM; for `N#CCn1cc2cc(-c3cn4ccc(NCC(F)(F)F)nc4c(-c4ccc(OC(F)F)cc4)c3=O)ccc2n1` [Example 19, 2-(5-{9-[4-(difluoromethoxy)phenyl]-8-oxo-2-[(2,2,2-trifluoroethyl)amino]pyrido[1,2-a]pyrimidin-7-yl}indazol-2-yl)acetonitrile], below 50 nM; for `O=c1c(-c2ccc(OC(F)F)cc2)cn2ccc(-c3ccc(OC(F)F)cc3)cc2c1-c1ccc(OC(F)F)cc1` [Example 1, 1,3,8-tris(4-(difluoromethoxy)phenyl)-2H-quinolizin-2-one], 50 to 200 nM.
Same read-out and setting: for `O=c1c(-c2ccc3c(c2)OC(F)(F)O3)cn2ccc(C3CC3)nc2c1-c1ccc2c(c1)OC(F)(F)O2` [Example 30, 2-cyclopropyl-7,9-bis(2,2-difluoro-1,3-benzodioxol-5-yl)-8H-pyrido[1,2-a]pyrimidin-8-one] the value was above 1000 nM; for `O=C1NC2(CC2)Cn2nc3ccc(-c4cn5ccc(C6CC6)nc5c(-c5ccc(OC(F)F)cc5)c4=O)cc3c21` [Example 35, 9′-(2-cyclopropyl-9-(4-(difluoromethoxy)phenyl)-8-oxo-8H-pyrido[1,2-a]pyrimidin-7-yl)-4′H-spiro[cyclopropane-1,3′-pyrazino[1,2-b]indazol]-1′(2′H)-one], below 50 nM; for `O=c1ccn2cc(-c3ccc(OC(F)F)cc3)c(=O)c(-c3ccc(OC(F)F)cc3)c2[nH]1` [Example 21, 7,9-bis[4-(difluoromethoxy)phenyl]-1H-pyrido[1,2-a]pyrimidin-2,8-dione], above 1000 nM.
Take `Cn1nccc1-c1c2cc(-c3cn4ccc(C5CC5)cc4c(-c4ccc5nn(C)c(-c6ccnn6C)c5c4)c3=O)ccc2nn1C` [Example 8, 8-cyclopropyl-1,3-bis[2-methyl-3-(2-methylpyrazol-3-yl)indazol-5-yl]quinolizin-2-one]: the IC50 on MAT2A enzyme is above 1000 nM.
On the same count and under the same terms, for `Nc1nc2ccc(-c3cn4ccc(NCC(F)(F)F)nc4c(-c4ccc(OC(F)F)cc4)c3=O)cc2s1` [Example 18] the value was below 50 nM; for `Cn1nc2ccc(-c3cn4ccc(C5CC5)cc4c(-c4ccc5nn(C)c(N)c5c4)c3=O)cc2c1N` [Example 5, 1,3-bis(3-amino-2-methyl-2H-indazol-5-yl)-8-cyclopropylquinolizin-2-one], above 1000 nM.
For `COc1ccc(-c2cn3ccc(C4CC4)nc3c(-c3ccc(OC)c(OC)c3)c2=O)cc1OC` [Example 31, 2-cyclopropyl-7,9-bis(3,4-dimethoxyphenyl)-8H-pyrido[1,2-a]pyrimidin-8-one], the IC50 on MAT2A enzyme was above 1000 nM.
Regarding `COc1ccc(-c2cn3ccc(C4CC4)nc3c(-c3ccc4c(c3)OC(F)(F)O4)c2=O)cc1OC` [Example 33, 2-cyclopropyl-9-(2,2-difluoro-1,3-benzodioxol-5-yl)-7-(3,4-dimethoxyphenyl)-8H-pyrido[1,2-a]pyrimidin-8-one], at MAT2A enzyme, the IC50 was above 1000 nM.
Still for that read-out and setting: for `O=C1NC2(CC2)Cn2nc3ccc(-c4cn5ccc(NCC(F)(F)F)nc5c(-c5ccc(OC(F)F)cc5)c4=O)cc3c21` [Example 14, 9′-{9-[4-(difluoromethoxy)phenyl]-8-oxo-2-[(2,2,2-trifluoroethyl)amino]pyrido[1,2-a]pyrimidin-7-yl}-2′,4′-dihydrospiro[cyclopropane-1,3′-pyrazino[1,2-b]indazol]-1′-one] the value was below 50 nM.
Regarding `Cn1cc2cc(-c3cn4ccc(C5CC5)nc4c(-c4ccc5nn(C)cc5c4)c3=O)ccc2n1` [Example 29, 2-cyclopropyl-7,9-bis(2-methyl-2H-indazol-5-yl)-8H-pyrido[1,2-a]pyrimidin-8-one], the IC50 on MAT2A enzyme is above 1000 nM.
On the same count and under the same terms, for `COc1cc(-c2cn3ccc(C4CC4)nc3c(-c3ccc(OC(F)F)c(OC)c3)c2=O)ccc1OC(F)F` [Example 37, 2-cyclopropyl-7,9-bis(4-(difluoromethoxy)-3-methoxyphenyl)-8H-pyrido[1,2-a]pyrimidin-8-one] the value was 50 to 200 nM; for `O=c1c(-c2ccc(OC(F)F)cc2)cn2c(C3CC3)ccnc2c1-c1ccc(OC(F)F)cc1` [Example 40, 4-cyclopropyl-7,9-bis[4-(difluoromethoxy)phenyl]-8H-pyrido[1,2-a]pyrimidin-8-one], above 1000 nM.

The values are drawn from US20240287063A1, “METHIONINE ADENOSYLTRANSFERASE 2A INHIBITOR” (NANJING CHIA TAI TIANQING PHARMACEUTICAL CO., LTD., priority 2021, published 2024).
